Earlier results as cited in US9949942B2, “Sustained release delivery of active agents to treat glaucoma and ocular hypertension” (Mati Therapeutics Inc., priority 0208, dated 2018).

Assays:
[1] = man; after topical administration
[2] = not given; remark: listed apart in the source

## CC(C)OC(=O)CCC/C=C\C[C@@H]1[C@@H](CC[C@@H](O)CCc2ccccc2)[C@H](O)C[C@@H]1O [Latanoprost, isopropyl-(Z)-7[(1R,2R,3R,5S)3,5-dihydroxy-2-[(3R)-3-hydroxy-5-phenylpentyl]cyclopentyl]-5-heptenoate]
[1]
  time to peak concentration in the aqueous humor: about two
Clinical trials
  frequency of retinal artery embolus, retinal detachment, vitreous hemorrhage from diabetic retinopathy: rarely reported
  rate of upper respiratory tract infection/cold/flu (most common systemic adverse events): approximately 4%
  subjects requiring discontinuation of therapy because of intolerance to conjunctival hyperemia: Less than 1%
conjunctivitis, diplopia, discharge from the eye
  ocular adverse events: subjects affected: Less than 1%
[2]; acetone, ethanol, ethyl acetate, isopropanol, methanol, octanol
  solubility in acetone, ethanol, ethyl acetate, isopropanol, methanol and octanol: freely soluble
[2]; acetonitrile
  solubility in acetonitrile: very soluble
[2]; water
  solubility in water: practically insoluble
